Measurements from ChEMBL document CHEMBL4402539, “Biological effects and activity optimization of small-molecule, drug-like synthetic anion transporters” (Eur J Med Chem, 2019).

How the values were obtained:
Type in all cases: functional, cell-based
[1] = tested on: A549; test: Cytotoxicity in human A549 cells assessed as reduction in cell viability after 18 hrs by MTT assay; details: A549, 18 h
[2] = tested on: HCT-116; test: Cytotoxicity in human HCT116 cells assessed as reduction in cell viability after 18 hrs by MTT assay; details: HCT-116, 18 h
[3] = tested on: HeLa; test: Cytotoxicity in human HeLa cells assessed as reduction in cell viability after 18 hrs by MTT assay
[4] = tested on: CAPAN-1; test: Cytotoxicity in human Capan1 cells assessed as reduction in cell viability after 18 hrs by MTT assay; details: CAPAN-1, 18 h

Measured: IC50

CC1(C)c2ccc([nH]2)C2(C)CCCNC(=O)c3cccc(n3)C(=O)NCCCC(C)(c3ccc1[nH]3)c1ccc([nH]1)C(C)(C)c1ccc2[nH]1
10 to 15 µM: [1] | [2] | [3] | [4]

CC1(C)c2ccc([nH]2)C2(C)CCCCNC(=O)c3cccc(n3)C(=O)NCCCCC(C)(c3ccc1[nH]3)c1ccc([nH]1)C(C)(C)c1ccc2[nH]1
10 to 15 µM: [1] | [2] | [3] | [4]
